Here are results for 1 compound from patent US20150233930A1, “METHODS AND COMPOSITIONS EMPLOYING SECRETED PROTEINS THAT REFLECT AUTOPHAGY DYNAMICS WITHIN TUMOR CELLS” (The Wistar Institute of Anatomy and Biology, priority 2014, published 2015).

One series concerns tumor cells. To be noted: preclinical models of melanoma; cited from earlier work.
The next series relates to 1205Lu cells. The series can be described thus: LC3 immunoblotting of lysates from cells treated with rapamycin or hydroxychloroquine. The class given is cell-based, human. Particulars: 1205Lu cells compared to WM793 cells. On the procedure:
Melanoma cell lines […] and 1205Lu (as well as other cell lines identified in the appropriate figures) were maintained in RPMI 1640 (Invitrogen) supplemented with 10% fetal bovine serum (Sigma), 50 μg/mL gentamicin, and 25 mmol/L HEPES in the presence of 5% CO2 at 37° C. The 3D spheroid cultures were prepared as previously described^1 and cell death was evaluated using the Live/Dead Assay (Invitrogen). Electron microscopy was performed as previously described^1. Immunoblotting was performed on whole cell lysates as previously described. A commercially available polyclonal antibody against actin (I-19) was used (Santa Cruz). A polyclonal antibody against LC3 that was produced by QCB Biologicals was used. Band densities from Western Blots were quantified using Adobe Photoshop CS4 Extended.
The genetically paired melanoma cell lines, WM793 and 1205Lu, were used for initial secretome comparisons due to the inherent genetic heterogeneity across unrelated melanoma cell lines. The 1205Lu cell line is a subclone derived from the lung metastasis of WM793 in athymic mice, thus minimizing protein expression changes caused by genetic differences^14. To determine autophagic capacity in these paired cell lines, electron microscopy of WM793 and 1205Lu grown in complete medium was used to quantify AVs (FIG. 1A). […]
In general terms: A western blot detects proteins with antibodies after separation by electrophoresis.

Turning to `CCN(CCO)CCCC(C)Nc1ccnc2cc(Cl)ccc12` (centres unmarked) [hydroxychloroquine], in the series on tumor cells, the “effect on cytotoxic effects of alkylating agents” value is “augment the cytotoxic effects of alkylating agents”. Besides, the LC3II/LC3I ratio entry with 1205Lu cells is recorded as “increases”.
